This is an account of results in patent US9975888B2, “Aryl linked imidazole and triazole derivatives and methods of use thereof for improving the pharmacokinetics of a drug” (MERCK SHARP & DOHME CORP., priority 2013, dated 2018).

Bounds are passed on as bounds.

Usually IC50 stands for the concentration that inhibits the measured activity by half.

Assay type in all cases: biochemical
For one assay, the target named is T1, CYP1A2 (Homo sapiens, UniProt P05177).
T1 construct: 0.1 mg/mL protein human liver microsomes (BD Gentest); tissue BD Gentest; host or cells: human liver microsomes
T1 sequence (P05177 1-516): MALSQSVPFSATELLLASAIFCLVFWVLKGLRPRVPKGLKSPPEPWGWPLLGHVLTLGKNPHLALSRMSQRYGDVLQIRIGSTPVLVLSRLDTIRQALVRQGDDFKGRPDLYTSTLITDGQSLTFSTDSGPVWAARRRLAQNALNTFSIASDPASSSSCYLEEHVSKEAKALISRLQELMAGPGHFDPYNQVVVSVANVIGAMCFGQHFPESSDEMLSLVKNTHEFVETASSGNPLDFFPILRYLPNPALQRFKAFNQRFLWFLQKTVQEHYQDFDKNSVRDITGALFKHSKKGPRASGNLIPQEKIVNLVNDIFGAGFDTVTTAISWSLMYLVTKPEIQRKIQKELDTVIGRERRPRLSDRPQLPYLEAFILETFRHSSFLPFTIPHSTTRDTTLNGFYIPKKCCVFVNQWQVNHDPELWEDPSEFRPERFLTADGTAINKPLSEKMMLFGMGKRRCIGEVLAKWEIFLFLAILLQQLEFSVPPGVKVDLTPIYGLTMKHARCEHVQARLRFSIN
Description: Cocktail assay for CYPs, phenacetin O-deethylation (CYP1A2), human liver microsomes. The conditions noted are these: 10 μM phenacetin, 0.1 mg/mL human liver microsomes, 10 min at 37° C.; read-out: CYP IC50 (nM) 1A2. The protocol:
(§1) Determination of IC50 in a Cocktail Assay for CYPs 1A2, 2C9, 2C19, 2D6 and 3A4:
(§2) This assay was performed in a standard 96-well plate design. IC50 values were calculated from the percent inhibition observed for each test compound at 6 concentrations (for example, 0.0032, 0.016, 0.08, 0.4, 2 and 10 μM). The incubation substrate mix contains 10 μM phenacetin (1A2), 5 μM diclofenac (2C9), 30 μM mephenytoin (2C19), 5 μM dextromethorphan (2D6) and 2 μM midazolam (3A4), 0.1 mg/mL protein human liver microsomes (BD Gentest), 1 mM NAPDH, 3.3 mM MgCl2 and 100 mM potassium phosphate buffer (pH 7.4). The production of the metabolite of each probe substrate was determined after incubation for 10 min at 37° C. Quantitation of the metabolite peak area ratio against an internal standard (tolbutamide) was determined by LC/MS/MS analysis following acetonitrile treatment of the incubations.
(§3) Samples were analyzed in the MRM mode with a SCIEX API-4000 mass spectrometer (Applied Biosystems, Foster City, Calif.), with a Shimadzu LC-20 AD pump (Shimadzu corporation, Kyoto, JP) and a CTC PAL autosampler (Agilent Technologies, Switzerland). A Phenomenex, Luna, […], 100 A, 2.00×30 mm HPLC column was used for the separation. The mobile phases were: (A) 0.1% formic acid in water and (B) 0.1% formic acid in acetonitrile. The binary gradient was as follows.
(§4) The peak area ratio of the analyte to the internal standard was used to quantify the metabolite. The values of peak area ratios in the presence of test compound were compared to those of maximum or minimum controls and were expressed as % inhibition by interpolating between the maximum and minimum peak area ratios. Incubations with no inhibitor were defined as the maxima. The following equation was used to calculate the % inhibition: [1−[(X−Low control)/(High control−Low control)]]*100 For the IC50 calculation, SigmaPlot was used to plot the mean % inhibition versus the test compound concentrations and for non-linear regression analysis of the data. Depending on the range of data points defining the inhibition curve, the data may have been fit to the 4-parameter logistic equation.

Another assay concerns the target T2, CYP2C9 (Homo sapiens, UniProt P11712).
T2 construct: 0.1 mg/mL protein human liver microsomes (BD Gentest); tissue BD Gentest; host or cells: human liver microsomes
Briefly: Cocktail assay for CYPs, diclofenac 4′-hydroxylation (CYP2C9), human liver microsomes. The conditions noted are these: 5 μM diclofenac, 0.1 mg/mL human liver microsomes, 10 min at 37° C.; read-out: CYP IC50 (nM) 2C9. The protocol:
as §1
as §2, with “IC50 values were calculated from the percent inhibition observed for each test compound at 6 concentrations (for example, 0.0032, 0.016, 0.08, 0.4, 2 and 10 μM).” left out
as §3, §4

In a further assay the target is T3, CYP2C19 (Homo sapiens, UniProt P33261).
T3 construct: 0.1 mg/mL protein human liver microsomes (BD Gentest); tissue BD Gentest; host or cells: human liver microsomes
T3 sequence (P33261 whole entry): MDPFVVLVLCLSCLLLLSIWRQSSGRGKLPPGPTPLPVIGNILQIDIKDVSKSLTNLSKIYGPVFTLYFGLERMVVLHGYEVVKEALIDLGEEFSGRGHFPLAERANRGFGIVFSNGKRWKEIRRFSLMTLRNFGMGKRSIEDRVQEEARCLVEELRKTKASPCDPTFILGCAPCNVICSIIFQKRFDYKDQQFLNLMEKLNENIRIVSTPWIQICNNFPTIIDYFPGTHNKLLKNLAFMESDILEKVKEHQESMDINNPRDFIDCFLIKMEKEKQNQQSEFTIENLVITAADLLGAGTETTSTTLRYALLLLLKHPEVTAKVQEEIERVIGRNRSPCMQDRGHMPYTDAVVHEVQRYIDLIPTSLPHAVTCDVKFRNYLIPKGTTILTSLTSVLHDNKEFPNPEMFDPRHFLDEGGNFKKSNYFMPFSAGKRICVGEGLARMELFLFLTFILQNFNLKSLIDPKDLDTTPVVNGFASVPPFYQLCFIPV
Description: Cocktail assay for CYPs, mephenytoin 4′-hydroxylation (CYP2C19), human liver microsomes. The settings on record: 30 μM mephenytoin, 0.1 mg/mL human liver microsomes, 10 min at 37° C.; read-out: CYP IC50 (nM) 2C19. The protocol:
as §1
as §2, with “IC50 values were calculated from the percent inhibition observed for each test compound at 6 concentrations (for example, 0.0032, 0.016, 0.08, 0.4, 2 and 10 μM).” left out
as §3, §4

A further assay addresses T4, CYP2D6 (Homo sapiens, UniProt P10635).
T4 construct: 0.1 mg/mL protein human liver microsomes (BD Gentest); tissue BD Gentest; host or cells: human liver microsomes
Description: Cocktail assay for CYPs, dextromethorphan O-demethylation (CYP2D6), human liver microsomes. The settings on record: 5 μM dextromethorphan, 0.1 mg/mL human liver microsomes, 10 min at 37° C.; read-out: CYP IC50 (nM) 2D6. The protocol: as §1, §2, §3, §4
(Microsomes from liver hold many membrane-bound enzymes, among them those of drug oxidation.)

Assay [1] concerns the target T5, CYP3A4 (Homo sapiens, UniProt P08684). Briefly: Cocktail assay for CYPs, midazolam 1′-hydroxylation (CYP3A4), human liver microsomes. Further details: 0.1 mg/mL protein human liver microsomes (BD Gentest); tissue BD Gentest; host or cells: human liver microsomes. The settings on record: 2 μM midazolam, 0.1 mg/mL human liver microsomes, 10 min at 37° C.; read-out: CYP IC50 (nM) 3A4 (MDZ). The protocol: as §1, §2, §3, §4
Target sequence in this assay (P08684 whole entry): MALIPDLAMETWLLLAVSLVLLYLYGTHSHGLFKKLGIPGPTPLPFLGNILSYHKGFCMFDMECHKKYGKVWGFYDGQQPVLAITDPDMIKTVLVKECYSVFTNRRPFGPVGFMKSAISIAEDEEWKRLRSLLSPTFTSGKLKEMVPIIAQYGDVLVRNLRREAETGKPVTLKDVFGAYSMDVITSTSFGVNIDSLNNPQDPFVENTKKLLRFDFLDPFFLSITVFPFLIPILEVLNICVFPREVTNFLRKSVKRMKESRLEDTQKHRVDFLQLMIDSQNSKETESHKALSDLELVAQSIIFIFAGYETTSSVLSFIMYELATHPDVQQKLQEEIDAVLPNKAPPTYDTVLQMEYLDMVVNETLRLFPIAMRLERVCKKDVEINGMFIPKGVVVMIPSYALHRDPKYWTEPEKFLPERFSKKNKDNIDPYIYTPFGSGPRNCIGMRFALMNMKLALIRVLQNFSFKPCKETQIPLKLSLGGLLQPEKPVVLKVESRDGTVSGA

The target of assay [2] is T5, CYP3A4. Description: IC50 vs CYP3A by inhibition of lopinavir metabolism in human liver microsomes. More on the design: 0.01 mg/mL protein human liver microsomes (BD Gentest); tissue BD Gentest; host or cells: human liver microsomes. The settings on record: 1.5 μM lopinavir, 0.01 mg/mL human liver microsomes, 8 min at 37° C.; read-out: CYP IC50 (nM) 3A4 (LPV). The protocol: Determination of IC50 vs CYP3A by Measurement of Inhibition of Lopinavir Metabolism
This assay was performed in a standard 96-well plate design. IC50 values were calculated from the percent inhibition observed for each test compound at 6 concentrations (for example, 0.098, 0.391, 1.56, 6.25, 25 and 100 nM). The incubation substrate mix contains 1.5 μM lopinavir, 0.01 mg/mL protein human liver microsomes (BD Gentest), 1 mM NAPDH, 3.3 mM MgCl2 and 100 mM potassium phosphate buffer (pH 7.4). The production of the sum of three hydroxylated metabolites (M2: 6-hydroxy lopinavir, M3: 4-hydroxy lopinavir, M4: 4-hydroxy lopinavir (epimer of M3), Kumar et al., 1999) was determined after incubation for 8 min at 37° C. Quantitation of the metabolite peak area ratio against an internal standard (tolbutamide) was determined by LC/MS/MS analysis following acetonitrile treatment of the incubations.
Samples were analyzed in the MRM mode with a SCIEX API-4000 mass spectrometer (Applied Biosystems, Foster City, Calif.), with a Shimadzu LC-20 AD pump (Shimadzu corporation, Kyoto, JP) and a CTC PAL autosampler (Agilent Technologies, Switzerland). A Phenomenex, Luna, 5 μm, 100 A, 2.00×30 mm HPLC column was used for the separation. The mobile phases were: (A) 0.1% formic acid in water and (B) 0.1% formic acid in acetonitrile. The binary gradient was as follows.
The peak area ratio of the analyte to the internal standard was used to quantify the metabolite. The values of peak area ratios in the presence of test compound were compared to those of maximum or minimum controls and were expressed as % inhibition by interpolating between the maximum and minimum peak area ratios. Incubations with no inhibitor were defined as the maxima and with 5 μM ketoconazole were defined as the minima.
The following equation was used to calculate the % inhibition: [1−[(X−Low control)/(High control−Low control)]]*100
For the IC50 calculation, SigmaPlot was used to plot the mean % inhibition versus the test compound concentrations and for non-linear regression analysis of the data. Depending on the range of data points defining the inhibition curve, the data may have been fit to the 4-parameter logistic equation.
Target sequence in this assay (P08684 2-503): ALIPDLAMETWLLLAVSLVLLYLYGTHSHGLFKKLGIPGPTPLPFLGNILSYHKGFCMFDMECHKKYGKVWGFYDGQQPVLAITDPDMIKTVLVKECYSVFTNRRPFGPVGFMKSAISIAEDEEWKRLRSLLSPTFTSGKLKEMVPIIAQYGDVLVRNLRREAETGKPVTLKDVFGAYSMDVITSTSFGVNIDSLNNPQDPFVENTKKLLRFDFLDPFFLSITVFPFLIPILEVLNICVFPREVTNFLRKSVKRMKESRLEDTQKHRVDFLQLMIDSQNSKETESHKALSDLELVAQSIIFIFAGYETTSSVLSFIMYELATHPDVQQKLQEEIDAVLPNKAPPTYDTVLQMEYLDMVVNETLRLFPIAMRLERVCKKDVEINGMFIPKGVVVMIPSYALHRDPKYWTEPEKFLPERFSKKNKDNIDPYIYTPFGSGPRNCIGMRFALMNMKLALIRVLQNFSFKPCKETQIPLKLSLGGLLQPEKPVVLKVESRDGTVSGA

T2 sequence (P11712 whole entry): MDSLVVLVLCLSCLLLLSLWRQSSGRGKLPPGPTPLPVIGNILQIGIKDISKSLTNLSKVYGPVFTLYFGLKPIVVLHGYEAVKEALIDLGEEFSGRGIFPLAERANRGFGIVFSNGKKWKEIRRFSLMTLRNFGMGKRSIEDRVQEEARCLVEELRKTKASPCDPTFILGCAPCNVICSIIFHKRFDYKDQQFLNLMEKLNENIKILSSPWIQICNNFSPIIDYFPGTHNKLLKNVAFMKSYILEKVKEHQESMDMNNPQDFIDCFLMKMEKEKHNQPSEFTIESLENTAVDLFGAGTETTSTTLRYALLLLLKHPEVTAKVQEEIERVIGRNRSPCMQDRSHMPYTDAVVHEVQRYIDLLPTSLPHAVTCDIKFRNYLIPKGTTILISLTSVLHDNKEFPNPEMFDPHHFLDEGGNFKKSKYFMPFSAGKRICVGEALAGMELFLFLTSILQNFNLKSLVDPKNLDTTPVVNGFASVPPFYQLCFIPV
T4 sequence (P10635 whole entry): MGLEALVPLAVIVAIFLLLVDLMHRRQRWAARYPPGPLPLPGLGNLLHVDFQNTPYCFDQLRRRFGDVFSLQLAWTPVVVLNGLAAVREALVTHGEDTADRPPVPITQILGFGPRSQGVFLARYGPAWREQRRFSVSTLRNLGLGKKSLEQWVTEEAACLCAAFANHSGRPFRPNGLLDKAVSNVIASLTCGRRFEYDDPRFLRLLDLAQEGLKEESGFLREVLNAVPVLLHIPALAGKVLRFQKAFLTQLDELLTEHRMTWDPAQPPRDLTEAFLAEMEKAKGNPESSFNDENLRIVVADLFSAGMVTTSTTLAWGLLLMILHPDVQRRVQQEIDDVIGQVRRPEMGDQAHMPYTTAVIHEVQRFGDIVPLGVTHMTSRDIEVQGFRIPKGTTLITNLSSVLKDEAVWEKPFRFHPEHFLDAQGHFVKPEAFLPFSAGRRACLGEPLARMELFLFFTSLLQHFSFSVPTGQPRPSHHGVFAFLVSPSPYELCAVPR

For the compound `O=S(=O)(c1cnc(Cl)c(Br)c1)N1CCCC1c1cccc(-c2cncn2CCc2ccc(F)cc2)c1` (stereo not drawn) [Compound 54, 3-Bromo-2-chloro-5-((2-(3-(1-(4-fluorophenethyl)-1H-imidazol-5-yl)phenyl)pyrrolidin-1-yl)sulfonyl) pyridine], the IC50 at CYP1A2 was 1240 nM; on CYP2C9, 422 nM; at CYP2C19, 109 nM; on CYP2D6 it was 1150 nM; on CYP3A4 [1], 13.9 nM; at CYP3A4 [2], 3.2 nM.
As to `CC(=O)Nc1ncc(S(=O)(=O)NCc2cccc(-c3cncn3CCc3ccc(F)cc3)c2)s1` [Compound 13, N-(5-(N-(3-(1-(4-fluorophenethyl)-1H-imidazol-5-yl)benzyl)sulfamoyl)thiazol-2-yl)acetamide], the IC50 on CYP1A2 was 99 nM; on CYP2C9 it was 65 nM; on CYP2C19 it was 357 nM; on CYP2D6 it was 348 nM; at CYP3A4 [1], 5.9 nM; on CYP3A4 [2] it was 5.3 nM.
As to `O=C(C1CC1)N1CCCC1c1ccccc1-c1cncn1CCc1ccc(F)cc1` (single isomer, unassigned) [Compound 44a, (R or S)-cyclopropyl(2-(2-(1-(4-fluorophenethyl)-1H-imidazol-5-yl)phenyl)pyrrolidin-1-yl)methanone], the IC50 on CYP1A2 was more than 10000 nM; on CYP2C9, more than 10000 nM; at CYP2C19, 6520 nM; at CYP2D6, more than 10000 nM; at CYP3A4 [1], 46.6 nM; at CYP3A4 [2] it was 20.1 nM.
For `C[C@H](c1ccc(F)cc1)n1cncc1-c1cccc2c1CCN(S(=O)(=O)c1cnc(N3CCN4C[C@H](O)C[C@H]4C3)s1)C2` [Compound 63, (7R,8aS)-2-(5-((5-(1-((R)-1-(4-fluorophenyl)ethyl)-1H-imidazol-5-yl)-3,4-dihydroisoquinolin-2(1H)-yl)sulfonyl)thiazol-2-yl)octahydropyrrolo[1,2-a]pyrazin-7-ol], the IC50 on CYP1A2 worked out at 2500 nM; on CYP2C9, 4950 nM; at CYP2C19, 2610 nM; at CYP2D6 it was 3680 nM; at CYP3A4 [1], 7.5 nM; at CYP3A4 [2] it was 5 nM.
For the compound `CC(=O)Nc1ncc(S(=O)(=O)NCc2ccc(-c3cncn3CCc3ccc(F)cc3)cn2)s1` [Compound 11, N-(5-(N-((5-(1-(4-fluorophenethyl)-1H-imidazol-5-yl)pyridin-2-yl)methyl)sulfamoyl)thiazol-2-yl)acetamide], the IC50 on CYP1A2 was more than 10000 nM; on CYP2C9, 7470 nM; at CYP2C19 it was 912 nM; at CYP2D6, 8390 nM; at CYP3A4 [1], 197 nM; on CYP3A4 [2], more than 100 nM.
In the case of `CC(=O)Nc1ncc(S(=O)(=O)NC(C)(C)c2ccccc2-c2cncn2CCc2ccc(F)cc2)s1` [Compound 7, N-(5-(N-(2-(2-(1-(4-fluorophenethyl)-1H-imidazol-5-yl)phenyl)propan-2-yl)sulfamoyl)thia-zol-2-yl)acetamide], the IC50 at CYP1A2 came to 6070 nM; on CYP2C9, 5990 nM; at CYP2C19, 3180 nM; at CYP2D6, 2880 nM; on CYP3A4 [1], 22.9 nM; at CYP3A4 [2], 10.6 nM.
Take `O=S(=O)(c1ccc(NCC(O)C2CC2)nc1)N1CCCC1c1ccccc1-c1cncn1CCc1ccc(F)cc1` (single isomer, unassigned) [Compound 34b, 1-cyclopropyl-2-((5-(((R or S)-2-(2-(1-(4-fluorophenethyl)-1H-imidazol-5-yl)phenyl)pyrrolidin-1-yl)sulfonyl)pyridin-2-yl)amino)ethanol]: the IC50 on CYP1A2 was more than 10000 nM; at CYP2C9 it was 1900 nM; on CYP2C19, 4400 nM; on CYP2D6, 2420 nM; at CYP3A4 [1] it was 5.5 nM; on CYP3A4 [2] it was 1 nM.
On to `CS(=O)(=O)N1CCCC1c1ccccc1-c1cncn1CCc1ccc(F)cc1` (single isomer, unassigned) [Compound 23a, (R or S)-1-(4-fluorophenethyl)-5-(2-(1-(methylsulfonyl)pyrrolidin-2-yl)phenyl)-1H-imidazole], for which the IC50 was more than 10000 nM on CYP1A2; more than 10000 nM at CYP2C9; 6920 nM at CYP2C19; 6720 nM at CYP2D6; 36.4 nM at CYP3A4 [1]; 58.5 nM at CYP3A4 [2].
Turning to `O=C(c1ccc(N2CCOCC2)nc1)N1CCCC1c1cccc(-c2cncn2CCc2ccc(F)cc2)c1` (stereo not drawn) [Compound 52, (2-(3-(1-(4-fluorophenethyl)-1H-imidazol-5-yl)phenyl)pyrrolidin-1-yl) (6-morpholino-pyridin-3-yl) methanone], the IC50 on CYP1A2 amounted to 6500 nM; at CYP2C9 it was 1970 nM; at CYP2C19, 249 nM; at CYP2D6 it was 2460 nM; at CYP3A4 [1], 5.76 nM; at CYP3A4 [2], 6 nM.
